The values that follow are results of earlier work, collected in patent US7612036B2, “Peptoid compounds” (University of Wollongong, priority 2001, dated 2009).

The conditions of this data set: cited from earlier work.

With `Cl.Cl.NCC(O)CC1NC(=O)C(N)Cc2cc(ccc2O)-c2ccc(O)c(c2)C(O)C(C(=O)O)NC1=O` (stereo not shown) [Biphenomycin A], the toxicity in mice entry is “low toxicity”.
